doi:10.1101/2025.08.20.671340v1 (biorxiv, 2025)

Assays:
[1] = target: T1, hAChE (human acetylcholinesterase) (Homo sapiens, UniProt P22303); experiment: enzyme inhibition assay; type: biochemical
physchem = conditions: pbs
[2] = target: T1, hAChE (human acetylcholinesterase); experiment: biochemical
[3] = target: T1, hAChE (human acetylcholinesterase); experiment: enzyme inhibition assay; type: biochemical; conditions: footnote d not shown: inhibition or residual activity and concentration unknown

T1 sequence (P22303 32-614): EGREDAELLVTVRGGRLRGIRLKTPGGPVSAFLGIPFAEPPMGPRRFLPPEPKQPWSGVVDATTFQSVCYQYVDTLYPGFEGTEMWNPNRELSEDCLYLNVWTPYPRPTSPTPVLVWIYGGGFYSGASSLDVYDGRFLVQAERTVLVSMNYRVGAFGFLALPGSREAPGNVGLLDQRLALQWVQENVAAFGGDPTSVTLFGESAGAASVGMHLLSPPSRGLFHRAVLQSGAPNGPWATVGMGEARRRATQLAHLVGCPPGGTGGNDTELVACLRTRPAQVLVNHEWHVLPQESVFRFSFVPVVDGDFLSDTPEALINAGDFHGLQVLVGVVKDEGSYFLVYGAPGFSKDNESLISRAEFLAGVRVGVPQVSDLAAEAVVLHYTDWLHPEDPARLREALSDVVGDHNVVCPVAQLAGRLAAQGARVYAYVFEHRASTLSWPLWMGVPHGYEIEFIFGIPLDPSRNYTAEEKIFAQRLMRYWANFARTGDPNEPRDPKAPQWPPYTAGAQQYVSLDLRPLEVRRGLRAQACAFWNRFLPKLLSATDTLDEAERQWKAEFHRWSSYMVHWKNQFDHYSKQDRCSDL

SMILES	IC50 [1]	other results
CN(CCC1CCCCCC1)Cc1c[nH]c2c(N(C)C(=O)Sc3nncn3C)cccc12 [compound 22]	21.8 µM	half-life (physchem): ~25 days
CN(CCC1CCCCCC1)Cc1c[nH]c2c(NC(=O)n3ccnc3)cccc12 [compound 33, N-(3-(((2-Cycloheptylethyl)(methyl)amino)methyl)-1H-indol-7-yl)-1H-imidazole-1-carboxamide]	–	IC50 [2]: 17.3 µM
CN(CCC1CCCCCC1)Cc1c[nH]c2c(N(C)C(=O)Sc3nnnn3C)cccc12 [compound 23]	16.9 µM	half-life (physchem): ~38 days
CN(CCC1CCCCCC1)Cc1c[nH]c2c([Te]C(=O)N(C)C)cccc12 [compound 4]	13.2 µM	–
CN(CCC1CCCCCC1)Cc1c[nH]c2c(N(C)C(=O)Oc3c(F)c(F)c(F)c(F)c3F)cccc12 [compound 11]	0.788 ± 0.176 µM	–
CN(CCC1CCCCCC1)Cc1c[nH]c2c(SC(=O)N(C)C)cccc12 [compound 2]	11.1 µM	–
CN(CCC1CCCCCC1)Cc1c[nH]c2c(N(C)C(=O)OCC(F)(F)F)cccc12 [compound 7]	–	% (footnote d) [3]: 51.6 ± 0.8%
CC[Se]C(=O)N(C)c1cccc2c(CN(C)CCC3CCCCCC3)c[nH]c12 [compound 24]	30.2 µM	–
CN(CCC1CCCCCC1)Cc1c[nH]c2c([Se]C(=O)N(C)C)cccc12 [compound 3]	9.75 µM	–
CN(CCC1CCCCCC1)Cc1c[nH]c2c(N(C)C(=O)[Se]c3ccccc3)cccc12 [compound 25]	–	% (footnote d) [3]: 53.6 ± 2.7%
CN(CCC1CCCCCC1)Cc1c[nH]c2c(N(C)C(=O)F)cccc12 [compound 6]	0.177 ± 0.006 µM	half-life (physchem): ~4 days
CN(CCC1CCCCCC1)Cc1c[nH]c2c(N(C)C(=O)n3cnc([N+](=O)[O-])c3)cccc12 [compound 27]	15.9 µM	–
CN(CCC1CCCCCC1)Cc1c[nH]c2c(N(C)C(=O)On3ccnc3)cccc12 [compound 14]	24.2 µM	half-life (physchem): ~18 days
CN(CCC1CCCCCC1)Cc1c[nH]c2c(N(C)C(=O)n3ccnc3)cccc12 [compound 26]	47.3 µM	half-life (physchem): ~14 days
CN(CCC1CCCCCC1)Cc1c[nH]c2c(N(C)C(=O)OC(C(F)(F)F)C(F)(F)F)cccc12 [compound 8]	25.8 µM	–
CN(CCC1CCCCCC1)Cc1c[nH]c2c(N(C)C(=O)OC(C(F)(F)F)(C(F)(F)F)C(F)(F)F)cccc12 [compound 9]	6.7 µM	–
CN(CCC1CCCCCC1)Cc1c[nH]c2c(N(C)C(=O)Oc3ccccc3)cccc12 [compound 10]	21.2 µM	–
